Where two headings read alike, the source gives them in different places.
Columns and labels:
[1] = target: T1, Amyloid β protein 1-40 (Homo sapiens, UniProt P05067); experiment: Fluorescence Congo Red Method; assay type: binding; settings: 1 h, compound 10 μM, amyloid β protein 5 μM
T1 construct: Amyloid β protein 1-40 (bought from Peptide Laboratory); purchased Peptide Laboratory

[2] = target: T2, amyloid β protein in the brain section of an Alzheimer disease patient (Homo sapiens, UniProt P05067); experiment: Staining test on a brain section of an Alzheimer disease patient: amyloid β protein; assay type: binding; settings: 100 μM solution in 50% ethanol, 10 minutes, paraffin brain section
T2 construct: from tissue; host or cells: paraffin-embedded temporal lobe and hippocampus of Alzheimer disease patients
Summary of the method: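 Deparaffinized 6 or 8 μm temporal lobe/hippocampus sections from Alzheimer and normal senile brains, autofluorescence quenched with KMnO4 then K2S2O5/oxalic acid, stained 10 min with 100 μM compound in 50% ethanol and imaged by fluorescence microscopy. Amyloid β immunostaining with 6F/3D antibody and ABC/DAB detection used for comparison.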

[3] = Congo red 0.1 μM, read-out: Binding Percentage of Compound in the presence of 0.1 μM CR
[4] = Congo red 0.3 μM, read-out: Binding Percentage of Compound in the presence of 0.3 μM CR
[5] = Congo red 1 μM, read-out: Binding Percentage of Compound in the presence of 1 μM CR

T1 sequence (P05067 672-711): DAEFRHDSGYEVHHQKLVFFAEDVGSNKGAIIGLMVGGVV
T2 sequence (P05067 672-713 limits assumed): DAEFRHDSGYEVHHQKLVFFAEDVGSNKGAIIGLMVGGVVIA

Structure (SMILES) | activity at 10 µM [1, 3] [%] | activity at 10 µM [1, 4] [%] | activity at 10 µM [1, 5] [%] | Binding to (staining of) amyloid β protein in the brain section of an Alzheimer disease patient [2]
OCC(CF)Oc1ccc2nc(/C=C/c3cnc(N4CCOCC4)s3)oc2c1 (centres unmarked) [THK-702, (E)-2-[2-(2-morpholinothiazol-5-yl)ethenyl]-6-[(1-fluoromethyl-2-hydroxy)ethoxy]-benzoxazole] | 74.9 | 37.3 | 0.8 | white space arrow indicates amyloid β protein
CNc1ncc(/C=C/c2nc3ccc(OC(CO)CF)cc3o2)s1 (centres unmarked) [THK-761, (E)-6-[(1-fluoromethyl-2-hydroxy)ethoxy]-2-[2-[2-methylaminothiazol-5-yl]ethenyl]-benzoxazole] | 55.2 | 21.6 | 7 | white space arrow indicates amyloid β protein
CN(C)c1ncc(/C=C/c2nc3ccc(OC(CO)CF)cc3o2)s1 (centres unmarked) [THK-763, (E)-6-[(1-fluoromethyl-2-hydroxy)ethoxy]-2-[2-[2-dimethylamino-thiazol-5-yl]ethenyl]benzoxazole] | 54.7 | 22.9 | 7.5 | white space arrow indicates amyloid β protein
FCCOc1ccc2nc(/C=C/c3cnc(N4CCOCC4)s3)oc2c1 [THK-525, 6-(2-fluoro-ethoxy)-2-[2-(2-morpholin-4-yl-thiazol-5-yl)-vinyl]-benzoxazole] | 61.4 | 24.1 | -6.4 | bound to the amyloid β protein
OCC(CF)Oc1ccc2nc(/C=C/c3cnc(N4CCCC4)s3)oc2c1 (centres unmarked) [THK-752, (E)-6-[(1-fluoromethyl-2-hydroxy)ethoxy]-2-[2-[2-(pyrrolidin-1-yl)-thiazol-5-yl]ethenyl]benzoxazole] | 50.4 | 20.6 | 11.3 | white space arrow indicates amyloid β protein

Reference: patent publication US7910579B2, “Benzoxazole derivatives” (Tohoku University, priority 2006, dated 2011)
